Converted amounts (≈) assume the structure as drawn. Like-named read-outs stand apart in the source and are kept apart here.
How the values were obtained:
A549 Sentinel Line = test: Sentinel Line reporter assay (beta-gal, FACS); type: cell-based, human; conditions: A549 sentinel line, with Gemcitabine, 40 hrs
Protocol: The expression level of beta-galactosidase gene in sentinel lines was determined by using a fluorescent substrate fluorescein di-B-D-Galactopyranside (FDG, Marker Gene Tech, #M0250) introduced into cells by hypotonic shock. Cleavage by beta-galactosidase results in the production of free fluorescein, which is unable to cross the plasma membrane and is trapped inside the beta-gal positive cells. Briefly, the cells to be analyzed are trypsinized, and resuspended in PBS containing 2 mM FDG (diluted from a 10 mM stock prepared in 8:1:1 mixture of water: ethanol: DMSO). The cells were then shocked for 4 minutes at 37° C. and transferred to FACS tubes containing cold 1×PBS on ice. Samples were kept on ice for 30 minutes and analyzed by FACS in FLI channel.
Sentinel Line cells with beta-galactosidase reporter gene were plated at 1×10^5 cells/10 cm dish. […] After 40 hrs, the cells were trypsinized and the expression level of reporter gene was determined by FDG loading.
The reporter activity was measured by FACS analysis.

VEGF = VEGF secretion in tumor cells; type: cell-based; conditions: FIG. 8
HIF-1α [1] = test: HIF-1α induced under normoxia by PHD inhibitor L-mimosone, Hep3B Western blot; type: cell-based, human; conditions: 200 μM L-mimosone, 18 h
Protocol: Abundance of HIF-1α and β-actin was determined by western blotting.

[2] = system: Panc-1 human pancreatic xenograft; test: Panc-1 human pancreatic tumor xenograft in nude mice; type: in vivo; conditions: Panc-1; BNC-4 15 mg/ml s.c. pump; Gemcitabine 40 mg/kg q3d×4
Description: (§1) Female nude mice (nu/nu) between 5 and 6 weeks of age weighing approximately 20 g were implanted subcutaneously (s.c.) by trocar with fragments of human tumors harvested from s.c. grown tumors in nude mice hosts. […] Each group contains 8-10 mice, each of which was ear tagged and followed throughout the experiment.
(§2) The administration of drugs or controls began the day the animals were pair-matched (Day 1). […] Mice were weighed and tumor measurements were obtained using calipers twice weekly, starting Day 1. These tumor measurements were converted to mg tumor weight by standard formula, (W^2×L)/2. The experiment is terminated when the control group tumor size reached an average of about 1 gram. Upon termination, the mice were weighed, sacrificed and their tumors excised. The tumors were weighed and the mean tumor weight per group was calculated.
(§3) The control animals received pumps containing vehicle (50% DMSO in DMEM). The mice treated with standard chemotherapy agent received intra-peritoneal injections of Gemcitabine at 40 mg/kg every 3 days for 4 treatments (q3d×4). Each data point represent average tumor weight (n=8) and error bars indicate SEM.
as §3

[3] = system: Caki-1 human renal cancer xenograft; type: in vivo, nude mice; conditions: Caki-1
Description: as §1, §2

Na+/K+-ATPase [4] = target: T1, Na+/K+-ATPase (Canis lupus familiaris, UniProt P50997); test: Na+/K+-ATPase inhibition; type: biochemical, dog; conditions: read-out: IC50 for inhibition of Na+/K+-ATPase
T1 construct: enzyme preparation from dog kidney (Sigma); purchased Sigma; host or cells: dog kidney tissue
Protocol: (§4) Anti-prolerafitive IC50 values were determined by MTS assay using an A549 cell line. Na^+/K^+-ATPase inhibition IC50 values were obtained using enzyme preparation from dog kidney (Sigma).

A549 cell line = test: anti-proliferation MTS assay in A549 cell line; type: cell-based; conditions: Homo sapiens
Protocol: as §4

HIF-1α [5] = test: Western blot using anti-HIF-1α antibody (Example XVI); type: cell-based
[6] = system: panel of 10 cancer cell lines; test: cytotoxicity against a panel of 10 cancer cell lines; type: cell-based; conditions: read-out: median IC50
[7] = effective plasma concentration and effective oral dose in patients; type: in vivo; conditions: Homo sapiens, cancer indications, 1.5 to 3 times that of cardiac indications, read-out: median effective concentration (EC50) of free drug
[8] = steady state serum level of about 50 ng/mL, xenograft nude mouse model
Na+/K+-ATPase [9] = conditions: Erdmann E 1978; cited from earlier work
[10] = cited from earlier work
[11] = at therapeutic plasma level; cited from earlier work
[12] = cited from earlier work; remark: listed apart in the source
rats = conditions: cited from earlier work
cats = conditions: cited from earlier work
[13] = 12 healthy individuals, 2×0.5 mg for 8 days, radio-immunoassay

## C[C@@H]1OC(OC2C=C3CCC4C(CC[C@]5(C)[C@@H](c6ccc(=O)oc6)CC[C@]45O)[C@@]3(C)CC2)[C@H](O)[C@H](O)[C@H]1O (stereo partly drawn) [BNC-4, proscillaridin]
A549 Sentinel Line
  effect on Gemcitabine-induced reporter activity: significantly shift the reporter activity to the left
VEGF
  secretion of VEGF in tumor cells: directly or indirectly inhibits
HIF-1α [1]
  HIF-1α accumulation induced by L-mimosone: eliminated HIF-1α accumulation by L-mimosone
[2]
  TGI: about 87%
[3]; BNC-4 5 mg/ml s.c. pump
  TGI: 43%
[3]; BNC-4 15 mg/ml s.c. pump
  TGI: 73%
Na+/K+-ATPase [4]
  IC50: ~130 nM
A549 cell line
  IC50: ~2.1 nM
HIF-1α [5]; 0.1 μM
  HIF-1α expression: completely inhibits
HIF-1α [5]; 1 μM
  HIF-1α expression: completely inhibits
[6]
  IC50: ~23 nM
[7]
  EC50: 1.2 to 2.5 ng/mL (≈ 2.26 to 4.71 nM)
[8]
  TGI (tumor growth inhibition): greater than 60%
Na+/K+-ATPase [9]
  order of Na+/K+-ATPase-inhibition: Ouabain<Digoxin<Proscillaridin
[10]; [13]
  Tmax: 48 ± 30 min
  median AUC: 385.0 ± 43.6 ng·h/mL
  median Cmax: 23.5 ± 2.6 ng/mL
[10]; according to the literature
  plasma half-life in human: about 40 hours
[10]; after oral administration
  measurable unconjugated drug as share of the administered quantity: 7%
[10]; cardiac patients
  median plasma half-life (T1/2): up to 49 hours
[10]; dosage form with acid-resistant (enteric) coating
  absolute bioavailability: about 35%
[10]; in vivo
  Volume-of-Distribution (VD): 562 L
  daily clearance: ~35%
  drug and its metabolites excreted by the bile: Greater than 99%
  total level of metabolism: > 95%
  unchanged drug excreted by the kidneys: less than 1%
[10]; oral
  time of second, longer-lasting blood level peak: about 1 hour
  time of third plasma peak after dosing: about 10 hours
[10]; patients taking antacids
  higher absorption with decreased stomach acid production: up to 60%
[10]; simple oral formulations
  oral absorption, accepted median: about 20%
[11]
  bound to plasma protein: about 85%
[12]; 0.25 to 0.5 mg/d i.v. for four days before surgery, 50 patients
  tolerability in cancer patients: well tolerated by all cancer patients with no appearance of either gastrointestinal or cardiac side effects
[12]; 47 clinical studies, 3740 patients
  patients exhibiting side-effects: about 6.3%
[12]; 47 clinical studies
  reported cases where therapy could be resumed after a brief hiatus: > 95%
[12]; 1067 patients observed for up to 3 years
  patients taken off the treatment for negative side effects: 0.7%
[12]; cardiac patients
  well tolerated dose: up to 1.5 mg/d
[12]; cardiac patients, listed as Proscillaridin A
  well tolerated dose: ~1.5 mg/day
[12]; cardiologically-normal individuals
  well tolerated dose: up to 3.5 mg/d
[12]; healthy individuals
  dose producing typical intoxication symptoms: above 4 mg p.o./d
[12]; healthy volunteers, 1.5 mg daily for 20 days
  side effects: no negative side effects
[12]; nausea, seasickness, headache, vomiting, stomach cramps, diarrhea
  average level of side effects in clinical reports: 5%
[12]; review of a total of 3740 patients
  long-term or late-appearing chronic toxicity: none of these cases noted any long-term or late-appearing chronic toxicity
rats; adult
  LD50 p.o.: 0.25 mg/kg
rats; young animals (female)
  LD50 p.o.: 76 mg/kg
cats
  intravenous toxicity: 0.193 mg/kg
